Legend:
[1] = tested on: S. aureus engineered with murB antisense
[2] = tested on: MetRS antisense clones; type: cell-based, B. anthracis
[3] = tested on: B. anthracis murB-2 antisense strain

CO[C@@]1(NC(=O)Cc2cccs2)C(=O)N2C(C(=O)O)=C(COC(N)=O)CS[C@@H]21 [cefoxitin]
IC50 shift [1]: 7.8
IC50 shift (sensitivity), antibiotic panel [1]: ≥ 4 fold

Cc1nnc(SCC2=C(C(=O)O)N3C(=O)[C@@H](NC(=O)Cn4cnnn4)[C@H]3SC2)s1 [cefozolin]
IC50 shift (sensitivity), antibiotic panel [1]: ≥ 4 fold

CO/N=C(\C(=O)N[C@@H]1C(=O)N2C(C(=O)O)=C(COC(C)=O)CS[C@H]12)c1csc(N)n1 [cefotaxime]
difference in sensitivity with and without inducer [2]: no difference in sensitivity
IC50 shift [3]: 343
IC50 shift (sensitivity), antibiotic panel [1]: ≥ 4 fold

CO/N=C(\C(=O)N[C@@H]1C(=O)N2C(C(=O)O)=C(CSc3nc(=O)c(=O)[nH]n3C)CS[C@H]12)c1csc(N)n1 [ceftriaxone]
IC50 shift (sensitivity), antibiotic panel [1]: ≥ 4 fold

CO/N=C(\C(=O)N[C@@H]1C(=O)N2C(C(=O)[O-])=C(C[N+]3(C)CCCC3)CS[C@H]12)c1csc(N)n1 [cefepime]
IC50 shift (sensitivity), antibiotic panel [1]: ≥ 4 fold

CCN1CCN(C(=O)N[C@@H](C(=O)N[C@@H]2C(=O)N3[C@@H]2SC(C)(C)[C@@H]3C(=O)O)c2ccccc2)C(=O)C1=O [pipericillin]
IC50 shift (sensitivity), antibiotic panel [1]: ≥ 4 fold

Cc1onc(-c2c(Cl)cccc2Cl)c1C(=O)N[C@@H]1C(=O)N2[C@@H]1SC(C)(C)[C@@H]2C(=O)O [dicloxacillin]
IC50 shift [1]: 5.8
IC50 shift (sensitivity), antibiotic panel [1]: ≥ 4 fold

Cc1onc(-c2ccccc2)c1C(=O)N[C@@H]1C(=O)N2[C@@H]1SC(C)(C)[C@@H]2C(=O)O [oxacillin]
IC50 shift (sensitivity), antibiotic panel [1]: ≥ 4 fold

From US7910337B2, “Method for identifying drug-sensitizing antisense DNA fragments and use thereof” (priority 2006, dated 2011)
